Results: the NIST ThermoML archive (doi:10.1016/j.jct.2012.01.008)

Conditions: Liquid, Vibrating tube method

COc1ccccc1 [anisole]
mass density [kg/m3]
Conditions | 100 kPa | 10000 kPa | 15000 kPa | 20000 kPa | 25000 kPa | 30000 kPa | 35000 kPa | 40000 kPa | 45000 kPa | 50000 kPa
298.15 K | 989.2 | 995.6 | 998.5 | 1001.4 | 1004.1 | 1006.9 | 1009.7 | 1012.5 | 1015.2 | 1017.5
318.15 K | 969.9 | 977.3 | 980.4 | 983.6 | 986.9 | 989.8 | 992.9 | 995.7 | 998.6 | 1001.5
348.15 K | 941.3 | 949.8 | 953.5 | 957.3 | 961.1 | 964.5 | 967.9 | 971 | 974.5 | 977.8

CC(=O)c1ccccc1 [acetophenone]
mass density [kg/m3]
Conditions | 100 kPa | 10000 kPa | 15000 kPa | 20000 kPa | 25000 kPa | 30000 kPa | 35000 kPa | 40000 kPa | 45000 kPa | 50000 kPa
298.15 K | 1023.4 | 1029 | 1031.7 | 1034.3 | 1036.8 | 1039.3 | 1041.8 | 1044.4 | 1046.7 | 1049
318.15 K | 1005.9 | 1012.2 | 1015.2 | 1018.1 | 1020.9 | 1023.6 | 1026.4 | 1028.8 | 1031.5 | 1034
348.15 K | 979.6 | 987.1 | 990.5 | 993.6 | 996.9 | 1000.1 | 1003.1 | 1006.1 | 1009 | 1011.7

CCC[N+]1(C)CCCCC1.O=S(=O)([N-]S(=O)(=O)C(F)(F)F)C(F)(F)F
mass density [kg/m3]
Conditions | 100 kPa | 10000 kPa | 15000 kPa | 20000 kPa | 25000 kPa | 30000 kPa | 35000 kPa | 40000 kPa | 45000 kPa | 50000 kPa
298.15 K | 1408.9 | 1415.4 | 1418.7 | 1421.9 | 1424.8 | 1427.7 | 1430.4 | 1433.2 | 1436.1 | 1438.8
318.15 K | 1392.1 | 1398.9 | 1402.4 | 1405.4 | 1408.6 | 1411.8 | 1414.7 | 1417.6 | 1420.5 | 1423.3
348.15 K | 1366.3 | 1373.5 | 1377.2 | 1380.8 | 1384.1 | 1387.6 | 1390.7 | 1393.8 | 1397 | 1399.9
